Test systems include 786-0 renal; DU-145 prostate; HOP-62 NSCLC; IGROV1 ovarian; MALME-3M melanoma; NCI-H226 lung; RPMI-8226 leukemia; SF-268 CNS; SF-295 CNS; SK-MEL-28 melanoma; SNB-75 CNS.
What all share (test): NCI-60 cell line screen, 48 h

Each structure is given as a SMILES string.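 Grown in 96-well plates, cells were treated for 48 hours with each compound at five concentrations. Insufficient inhibition: endpoint recorded as highest concentration tested. Definition used: TGI = concentration required for complete inhibition of growth.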

For twelve molecules, TGI results are on record in PubChem BioAssay (NCI).

Turning to `CCc1c(N=[N+]=[N-])c2ccccc2oc1=O`, the TGI with 786-0 renal, with DU-145 prostate, in the experiment with HOP-62 NSCLC, in the experiment on IGROV1 ovarian, in the experiment on MALME-3M melanoma and in the experiment on NCI-H226 lung was over 100 µM throughout. The TGI in the experiment with RPMI-8226 leukemia, in the experiment with SF-268 CNS, with SF-295 CNS, in the experiment with SK-MEL-28 melanoma and in the experiment on SNB-75 CNS was over 100 µM each time.

In the case of `CC(=O)OCC1OC(NC(=S)Nn2c(-c3ccccc3)nc3ccccc3c2=O)C(OC(C)=O)C(OC(C)=O)C1OC(C)=O` (configuration not stated), the TGI in the experiment on 786-0 renal, in the experiment on DU-145 prostate, in the experiment on HOP-62 NSCLC, with IGROV1 ovarian, with MALME-3M melanoma and in the experiment with NCI-H226 lung was over 100 µM each time. Further, the TGI in the experiment with RPMI-8226 leukemia, in the experiment on SF-268 CNS, in the experiment on SF-295 CNS, in the experiment on SK-MEL-28 melanoma and in the experiment with SNB-75 CNS was over 100 µM throughout.

In the case of `COc1cc(CCNC2=CC(=O)c3ncccc3C2=O)ccc1O`, the TGI worked out at 18.1 µM with 786-0 renal; 12.3 µM in the experiment with DU-145 prostate; 9.5 µM in the experiment with HOP-62 NSCLC; 10.1 µM in the experiment with IGROV1 ovarian; 1.98 µM in the experiment with MALME-3M melanoma; 6.62 µM in the experiment with NCI-H226 lung. For the same molecule, the TGI was 30.5 µM with RPMI-8226 leukemia; 47.4 µM with SF-268 CNS; 4.02 µM in the experiment on SF-295 CNS; 4.09 µM in the experiment with SK-MEL-28 melanoma; 4.73 µM in the experiment on SNB-75 CNS.

In the case of `COc1ccc(CC(COS(=O)(=O)c2ccc(C)cc2)NS(=O)(=O)c2ccc(C)cc2)cc1` (configuration not stated), the TGI was found to be 53.1 µM in the experiment on 786-0 renal; 28.9 µM in the experiment with DU-145 prostate; 41.2 µM with HOP-62 NSCLC; 30.1 µM with IGROV1 ovarian; 27.3 µM in the experiment with MALME-3M melanoma; 27.7 µM with NCI-H226 lung. In addition, the TGI with RPMI-8226 leukemia is over 100 µM; in the experiment on SF-268 CNS, 39 µM; in the experiment with SF-295 CNS, 33.6 µM; with SK-MEL-28 melanoma, 35.2 µM; with SNB-75 CNS it was 28.4 µM.

As to `CCOC(=O)c1c2ccccc2n2c(=O)n(-c3ccccc3)nnc12`, the TGI in the experiment on 786-0 renal, in the experiment with DU-145 prostate, in the experiment with HOP-62 NSCLC, in the experiment on IGROV1 ovarian, with MALME-3M melanoma and with NCI-H226 lung was over 100 µM each time. Also, the TGI with RPMI-8226 leukemia was over 100 µM; with SF-268 CNS, over 100 µM; in the experiment with SF-295 CNS, over 49.1 µM; in the experiment with SK-MEL-28 melanoma, over 100 µM; in the experiment with SNB-75 CNS, 89.5 µM.

`C/C(=C/C(=O)N(C)c1ccccc1Cl)O[Si](C(C)C)(C(C)C)C(C)C`: the TGI is 33.1 µM in the experiment on 786-0 renal; over 100 µM in the experiment on DU-145 prostate; 74.4 µM in the experiment on HOP-62 NSCLC; 59.7 µM in the experiment on IGROV1 ovarian; 51.5 µM in the experiment on MALME-3M melanoma; 34.5 µM in the experiment with NCI-H226 lung. In addition, the TGI in the experiment on RPMI-8226 leukemia was 63.9 µM; in the experiment on SF-268 CNS, 46.4 µM; with SF-295 CNS, 74.8 µM; in the experiment with SK-MEL-28 melanoma, over 100 µM; with SNB-75 CNS, over 100 µM.

Consider `CN(C)CCCCN1c2ccccc2Sc2ccc(N=[N+]=[N-])cc21`, for which the TGI in the experiment on 786-0 renal was determined as 23.6 µM; in the experiment on DU-145 prostate, 18.2 µM; in the experiment on HOP-62 NSCLC, 25.1 µM; with IGROV1 ovarian it was 11.7 µM; in the experiment on MALME-3M melanoma, 3.17 µM; in the experiment with NCI-H226 lung, 17.7 µM. For the same molecule, the TGI turned out to be 5.45 µM with RPMI-8226 leukemia; 19.5 µM in the experiment with SF-268 CNS; 17.8 µM in the experiment on SF-295 CNS; 3.6 µM in the experiment on SK-MEL-28 melanoma; 10 µM in the experiment with SNB-75 CNS.

Regarding `C[N+](C)(C)CC(=O)N/N=C\c1c(O)ccc2ccccc12`, the TGI in the experiment on 786-0 renal is over 100 µM; in the experiment with DU-145 prostate it was over 100 µM; in the experiment with HOP-62 NSCLC, over 100 µM; in the experiment with IGROV1 ovarian, over 100 µM; in the experiment on MALME-3M melanoma, 38.3 µM; in the experiment on NCI-H226 lung, 85.9 µM. The TGI with RPMI-8226 leukemia is over 100 µM; in the experiment on SF-268 CNS, 69.8 µM; with SF-295 CNS it was over 100 µM; in the experiment on SK-MEL-28 melanoma, over 100 µM; in the experiment on SNB-75 CNS, 71.1 µM.

As to `NCCCc1nonc1C(=O)O`, the TGI with 786-0 renal, in the experiment on DU-145 prostate, in the experiment on HOP-62 NSCLC, in the experiment on IGROV1 ovarian, in the experiment with MALME-3M melanoma and in the experiment with NCI-H226 lung was over 100 µM each time. The TGI with RPMI-8226 leukemia, in the experiment with SF-268 CNS, with SF-295 CNS, with SK-MEL-28 melanoma and with SNB-75 CNS was over 100 µM each time.

As for `NS(=O)(=O)c1ccc(NNc2c3ccccc3nc3c(C(=O)Nc4ccc(S(N)(=O)=O)cc4)cccc23)cc1`, the TGI is over 100 µM with 786-0 renal; over 100 µM with DU-145 prostate; over 100 µM in the experiment with HOP-62 NSCLC; over 100 µM with IGROV1 ovarian; 99.8 µM with MALME-3M melanoma; over 100 µM in the experiment on NCI-H226 lung. For the same molecule, the TGI is over 100 µM in the experiment on RPMI-8226 leukemia; 98.4 µM in the experiment with SF-268 CNS; over 100 µM with SF-295 CNS; over 100 µM in the experiment with SK-MEL-28 melanoma; over 100 µM in the experiment on SNB-75 CNS.

Consider `COc1cc(Nc2nc(NS(=O)(=O)c3cc(C)c(Cl)cc3S)n[nH]2)cc(OC)c1OC`, for which the TGI in the experiment with 786-0 renal, with DU-145 prostate, in the experiment with HOP-62 NSCLC, in the experiment on IGROV1 ovarian, in the experiment with MALME-3M melanoma and with NCI-H226 lung was over 100 µM each time. The TGI in the experiment on RPMI-8226 leukemia, in the experiment with SF-268 CNS, in the experiment with SF-295 CNS, in the experiment with SK-MEL-28 melanoma and with SNB-75 CNS was over 100 µM in each case.

Consider `Cn1c2ccccc2n2c3ccccc3c3nnc(N)c-3c12`, for which the TGI with 786-0 renal was 49.8 µM; in the experiment with DU-145 prostate, over 100 µM; in the experiment with HOP-62 NSCLC it was over 86.5 µM; in the experiment on IGROV1 ovarian, over 100 µM; with MALME-3M melanoma, 32.3 µM; in the experiment on NCI-H226 lung, over 100 µM. The TGI is over 100 µM with RPMI-8226 leukemia; 3.68 µM with SF-268 CNS; over 100 µM in the experiment on SF-295 CNS; over 100 µM in the experiment on SK-MEL-28 melanoma; 11.8 µM in the experiment with SNB-75 CNS.
